What was measured:
Test in all cases: relative viability (nuclei count vs DMSO), 5 days (fraction); higher = more cells survive
[1] = compound: CN(C)C[C@@H]1CCn2cc(c3ccccc32)C2=C(C(=O)NC2=O)c2cn(c3ccccc23)CCO1 [Ruboxistaurin] + C[C@@H](Oc1cc(-c2cnn(C3CCNCC3)c2)cnc1N)c1c(Cl)ccc(F)c1Cl [Crizotinib] (partner 1 µM)
Outline: (§1)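 Medians of duplicate plates are given as relative viability. That measure is the nuclei count in treated wells divided by the count in vehicle wells. Counts were taken on 4× images of lung cancer cell lines in 1536-well plates, 5 days after pin-tool dosing the day after seeding with one drug alone or a fixed anchor-drug dose plus five library-drug doses (not always all listed) in √10 steps.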

[2] = compound: CN(C)C[C@@H]1CCn2cc(c3ccccc32)C2=C(C(=O)NC2=O)c2cn(c3ccccc23)CCO1 [Ruboxistaurin] + CS(=O)(=O)N1CCN(Cc2cc3nc(-c4cccc5[nH]ncc45)nc(N4CCOCC4)c3s2)CC1 [Pictilisib] (partner 1 µM)
Outline: as §1

[3] = compound: CN(C)C[C@@H]1CCn2cc(c3ccccc32)C2=C(C(=O)NC2=O)c2cn(c3ccccc23)CCO1 [Ruboxistaurin] + CC(=O)Nc1cccc(-n2c(=O)n(C3CC3)c(=O)c3c(Nc4ccc(I)cc4F)n(C)c(=O)c(C)c32)c1 [Trametinib] (partner 0.02 µM)
Outline: as §1

Ruboxistaurin + Olaparib = compound: CN(C)C[C@@H]1CCn2cc(c3ccccc32)C2=C(C(=O)NC2=O)c2cn(c3ccccc23)CCO1 [Ruboxistaurin] + O=C(c1cc(Cc2n[nH]c(=O)c3ccccc23)ccc1F)N1CCN(C(=O)C2CC2)CC1 [Olaparib] (partner 8 µM)
Outline: as §1

Ruboxistaurin + AZD7762 = compound: CN(C)C[C@@H]1CCn2cc(c3ccccc32)C2=C(C(=O)NC2=O)c2cn(c3ccccc23)CCO1 [Ruboxistaurin] + NC(=O)Nc1cc(-c2cccc(F)c2)sc1C(=O)N[C@H]1CCCNC1 [AZD7762] (partner 0.2 µM)
Outline: as §1

Cell Line | relative viability ([1]; first compound 0.08 µM) | relative viability ([1]; first compound 0.8 µM) | relative viability ([1]; first compound 2.53 µM) | relative viability ([1]; first compound 8 µM) | relative viability ([2]; first compound 0.08 µM) | relative viability ([2]; first compound 0.8 µM) | relative viability ([2]; first compound 2.53 µM) | relative viability ([2]; first compound 8 µM) | relative viability ([3]; first compound 0.08 µM) | relative viability ([3]; first compound 0.8 µM) | relative viability ([3]; first compound 2.53 µM) | relative viability ([3]; first compound 8 µM) | relative viability (Ruboxistaurin + Olaparib; first compound 0.08 µM) | relative viability (Ruboxistaurin + Olaparib; first compound 0.8 µM) | relative viability (Ruboxistaurin + Olaparib; first compound 2.53 µM) | relative viability (Ruboxistaurin + Olaparib; first compound 8 µM) | relative viability (Ruboxistaurin + AZD7762; first compound 0.08 µM) | relative viability (Ruboxistaurin + AZD7762; first compound 0.8 µM) | relative viability (Ruboxistaurin + AZD7762; first compound 2.53 µM) | relative viability (Ruboxistaurin + AZD7762; first compound 8 µM)
NCI-H1650 | 0.991 | 0.837 | 1.19 | 1.04 | 0.679 | 0.402 | 0.646 | 0.359 | 0.698 | 0.447 | 0.613 | 0.571 | 0.854 | 0.709 | 0.907 | 0.981 |  |  |  | 
NCI-H1395 |  |  |  |  | 0.635 | 0.611 | 0.713 | 0.518 | 1.15 | 0.846 | 0.988 | 1.09 | 0.465 | 0.397 | 0.466 | 0.474 | 0.41 | 0.411 | 0.419 | 0.418
NCI-H522 |  |  |  |  |  |  |  |  | 0.767 | 0.586 | 0.754 | 0.764 | 0.71 | 0.676 | 0.637 | 0.728 | 0.987 | 0.804 | 0.833 | 0.81
NCI-H520 | 0.838 | 0.698 | 0.758 | 0.693 | 0.324 | 0.264 | 0.236 | 0.208 | 0.831 | 0.627 | 0.808 | 0.617 | 0.321 | 0.341 | 0.328 | 0.291 |  |  |  | 
UMC-11 | 0.537 | 0.554 | 0.64 | 0.465 | 0.892 | 0.596 | 0.728 | 0.509 | 0.766 | 0.623 | 0.649 | 0.577 | 0.554 | 0.364 | 0.361 | 0.289 |  |  |  | 
SK-LU-1 | 1.03 | 0.734 | 0.869 | 0.583 | 0.55 | 0.55 | 0.561 | 0.426 | 0.575 | 0.418 | 0.717 | 0.422 | 0.483 | 0.397 | 0.536 | 0.469 |  |  |  | 
SW 1573 | 0.855 | 0.74 | 0.942 | 0.688 | 0.468 | 0.39 | 0.542 | 0.37 | 0.527 | 0.491 | 0.549 | 0.516 | 0.494 | 0.369 | 0.595 | 0.482 |  |  |  | 
SW 900 |  |  |  |  |  |  |  |  | 0.785 | 0.972 | 0.912 | 0.693 | 0.891 | 0.829 | 1.03 | 0.964 | 0.625 | 0.501 | 1.09 | 0.568
NCI-H2228 | 0.453 | 0.427 | 0.316 | 0.3 | 0.431 | 0.358 | 0.345 | 0.335 | 0.517 | 0.379 | 0.525 | 0.368 | 0.643 | 0.564 | 0.889 | 0.696 |  |  |  | 
COR-L23 | 0.725 | 0.621 | 0.689 | 0.777 | 0.802 | 0.688 | 0.676 | 0.59 | 0.749 | 0.581 | 0.571 | 0.59 | 0.409 | 0.377 | 0.387 | 0.326 |  |  |  | 
